The text below walks through data of US20110313056A1 (BIO SYNTECH CANADA INC., priority 2005, published 2011).

The nature of series [1]: Diffusion of GP from chitosan gel into DMEM bath, phosphorus by Kjeldahl digestion. Particulars: GP concentration in DMEM bath over time vs free diffusion model. The series is classed as physicochemical. From the text:
Here we provide evidence that supports the notion that there is no ionic cross-link between the polyelectrolyte and the counter-ion, using gels kept in contact with a bath solution to allow the weak electrolyte (glycerol 2-phosphate in this example) to diffuse out of the gel. […] A simple diffusion model predicted the diffusion profile and allowed the calculation of the diffusion constant in the gel (see section “Diffusion from a gel to a washing solution”) showing an absence of binding with the chitosan gel component.
A 7.5 mL solution (see Table 6) containing chitosan (2.93% w/v Protosan UP CL 213) was placed on ice at 4° C. To this solution, we added 2.25 mL glucosamine (2.16% w/v) drop by drop every 15 seconds followed by 1 mL glycerol 2-phosphate (GP) (33.3% w/v) and 2 mL of hydroxyethyl cellulose. […]
Samples of gel were then taken for analysis of phosphorus content and additional gel samples also taken following three subsequent washes in DMEM for 60 minutes each. Phosphorus was quantified using the established method of Kjeldahl digestion (Liao, N., Total phosphorus in Kjeldahl digests, Milwaukee, Wis.: LACHAT Instruments, 25 p., QuickChem Method 10-115-01-1-C, 1993) followed by the analysis of the absorption at 880 nm of the PO4^3− complex with ammonium molybdate and antimony potassic tartrate.
Concentration cp^m is the measured concentration from the absorption at 880 nm. […]

Series [2] can be described thus: Glycerol 2-phosphate titration followed by 31P chemical shift and pH at different temperatures. It counts as physicochemical. The source says: In order to measure the variation of the polyelectrolyte ionization degree (chitosan in the present case), we performed NMR measurements of the glycerol 2-phosphate (GP) ^31P chemical shift. Glycerol 2-phosphate titration curve at different temperatures allow determination pKa2^GP, δa and δb by fitting pH and δ values of the following equation
where δa and δb are the chemical shifts of ^31P in the monovalent and divalent form of GP, respectively.
This last equation is valid for ideal solutions where the proton activity coefficient is γH+=1.
We dissolve 0.594 g of glycerol 2-phosphate (Sigma, No. Cat. G-9891, 297 g/mol with 4.5 moles H2O per mole of GP) in 18 mL H2Odd and 2 mL D2O (Aldrich, No. Cat. 15,188-2-250G) in a graduate cylinder giving a CGP concentration of 100 mM. A total of 11 solutions (see Table 3) with different ionization degree are prepared from this base solution. The pH is measured with an Accumet meter, model 20 using an electrode 9803BN from Orion.

The conditions of series [3]: literature (Voet and Voet); cited from earlier work.

`O=P(O)(O)OC(CO)CO` [GP, glycerol 2-phosphate]: the “binding of GP to the components of the gel” value in series [1] was “lack of binding”. The “pKa2^GP” value in series [2] (5 ° C.) is given as 6.13; in series [2] (15 ° C.), 6.14; in series [2] (25 ° C.), 6.16; in series [2] (37 ° C.), 6.16.
Consider `O=P(O)(O)O` [phosphate, inorganic phosphate], for which, in series [3], the “Ka1^P” value was “approximately 2.2” and the “Ka2^P” value is on record as about 6.8.
